From US10053453B2, “Compounds and their use as BACE inhibitors” (AstraZeneca AB, priority 2014, dated 2018)
Structures can show the parent of a compound that is named as a salt. Where two headings read alike, the source gives them in different places.

Legend:
Human BACE1 = target: T1, Human BACE1 (Homo sapiens, UniProt P56817); test: Diluted TR-FRET assay; format: biochemical; settings: 50 times less enzyme, 6.5 h reaction time at r.t.; read-out: IC50 BACE1 (dil. TR-FRET)
T1 construct: the soluble part of the human β-Secretase1 (AA1-AA460) was cloned using the BACE1(1-460)-(AVT)-Fc-pGEN-IRES-neo mammalian expression vector; AVT linker (C); made in house
T1 sequence (P56817 22-460): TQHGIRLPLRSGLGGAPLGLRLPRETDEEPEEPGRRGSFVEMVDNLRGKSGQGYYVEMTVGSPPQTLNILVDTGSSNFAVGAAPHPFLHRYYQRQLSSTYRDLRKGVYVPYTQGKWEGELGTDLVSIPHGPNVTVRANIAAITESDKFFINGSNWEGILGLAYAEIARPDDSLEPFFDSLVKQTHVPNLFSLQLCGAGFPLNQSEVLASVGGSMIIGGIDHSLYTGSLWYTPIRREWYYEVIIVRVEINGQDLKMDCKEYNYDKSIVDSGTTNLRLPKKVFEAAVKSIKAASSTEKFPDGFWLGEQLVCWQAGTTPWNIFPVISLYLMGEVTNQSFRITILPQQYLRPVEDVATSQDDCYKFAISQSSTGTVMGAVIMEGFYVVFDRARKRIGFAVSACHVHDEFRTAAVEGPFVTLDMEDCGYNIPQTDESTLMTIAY
Protocol: (§1) The β-secretase enzyme used in the TR-FRET was prepared as follows:
(§2) Human BACE1: the cDNA for the soluble part of the human β-Secretase1 (AA1-AA460) was cloned using the BACE1(1-460)-(AVT)-Fc-pGEN-IRES-neo mammalian expression vector. The gene was fused to the Fe domain of IgG1 (affinity tag) and stably cloned into HEK 293 cells. […]
A multidrop Combi was used for the liquid handling. Enzyme (7 μL) was added to the compound plate (containing 0.8 μL of compound in dimethylsulphoxide). The plate was incubated for 10 minutes. […] The reaction was stopped with the addition of Stop solution (5.5 μL, NaOAC, pH 9). Fluorescence was measured on a Pherastar plate reader using HTRF module. […] 5 reference inhibitors with different affinities were used at all screen occasions in dose response.

Human BACE2 = target: T2, Human BACE2 (Homo sapiens, UniProt Q9Y5Z0); test: TR-FRET assay; format: biochemical; settings: enzyme 2.7 μg/mL, substrate 100 nM, pH4.5
T2 construct: the soluble part of the human β-Secretase2 (AA1-AA473) was cloned using BACE2(1-473)-(AVT)-Fc-pDEST12.2 mammalian expression vector; AVT linker (C); made in house
T2 sequence (Q9Y5Z0 21-473): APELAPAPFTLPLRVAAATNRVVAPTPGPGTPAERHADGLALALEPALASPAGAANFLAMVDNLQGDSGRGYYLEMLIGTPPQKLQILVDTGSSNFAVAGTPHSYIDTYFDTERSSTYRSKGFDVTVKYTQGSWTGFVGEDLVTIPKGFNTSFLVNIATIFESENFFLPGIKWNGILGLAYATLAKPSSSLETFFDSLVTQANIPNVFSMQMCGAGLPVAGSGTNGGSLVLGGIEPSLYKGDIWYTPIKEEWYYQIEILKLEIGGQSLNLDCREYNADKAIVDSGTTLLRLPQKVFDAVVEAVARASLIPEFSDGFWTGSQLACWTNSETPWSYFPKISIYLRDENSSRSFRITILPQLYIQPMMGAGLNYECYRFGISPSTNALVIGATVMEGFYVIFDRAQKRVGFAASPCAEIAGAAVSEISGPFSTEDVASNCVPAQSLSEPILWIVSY
Protocol: as §1, §2
A multidrop Combi was used for the liquid handling. Enzyme (7 μL) was added to the compound plate (containing 0.8 μL of compound in dimethylsulphoxide). The plate was incubated for 10 minutes. Substrate (8 μL) was then added, and the reaction proceeded for 17 minutes at r.t. The reaction was stopped with the addition of Stop solution (5.5 μL, NaOAC, pH 9). Fluorescence was measured on a Pherastar plate reader using HTRF module. […] 5 reference inhibitors with different affinities were used at all screen occasions in dose response.

SH-SY5Y cells = test: sAPPβ release assay
[1] = Homo sapiens, SH-SY5Y, read-out: IC50 Cell (sAPPβ release, nM), SH-SY5Y cells, compounds incubated 16-17 h
[2] = Homo sapiens, SH-SY5Y, read-out: IC50 Cell (sAPPβ release, nM)

Row | Compound | IC50 (Human BACE1) [nM] | IC50 (Human BACE2) [nM] | IC50 (SH-SY5Y cells; [1]) [nM] | IC50 (SH-SY5Y cells; read-out: IC50 Cell (sAPPβ release), SH-SY5Y cells, compounds incubated 16-17 h) [nM] | IC50 (SH-SY5Y cells; [2]) [nM]
1 | [2H]C1([2H])OC(N)=N[C@]12c1cc(C#CC(C)C)ccc1C[C@@]21CC[C@H](O)[C@@H](C)C1 (racemic) [Compound 11, (1S,3S,4S)-2″-amino-3-methyl-6′-(3-methylbut-1-yn-1-yl)-3′H,5″H-dispiro[cyclohexane-1,2′-indene-1′,4″-oxazol]-5″,5″-d2-4-ol and (1R,3R,4R)-2″-amino-3-methyl-6′-(3-methylbut-1-yn-1-yl)-3′H,5″H-dispiro[cyclohexane-1,2′-indene-1′,4″-oxazol]-5″,5″-d2-4-ol] | 266 | 519 | 0.9 | – | –
2 | [2H]C1([2H])OC(N)=N[C@]12c1cc(-c3cncc(C4CC4)c3)ccc1C[C@]21CC[C@@H](OC)[C@H](C)C1 [Compound 1, (1R,1′R,3R,4R)-6′-(5-cyclopropylpyridin-3-yl)-4-methoxy-3-methyl-3′H,5″H-dispiro[cyclohexane-1,2′-indene-1′,4″-oxazol]-5″,5″-d2-2″-amine formate Salt] | 239 | 144 | 5.3 | – | –
3 | [2H]C1([2H])OC(N)=N[C@]12c1cc(-c3cncc(C#CC)c3)ccc1C[C@]21CC[C@@H](OC)[C@H](C)C1 [Compound 2, (1R,1′R,3R,4R)-4-methoxy-3-methyl-6′-(5-(prop-1-yn-1-yl)pyridin-3-yl)-3′H,5″H-dispiro[cyclohexane-1,2′-indene-1′,4″-oxazol]-5″,5″-d2-2″-amine] | 6.2 | 17 | 0.27 | – | –
4 | [2H]C1([2H])OC(N)=N[C@]12c1cc(-c3cncc(C#CC)c3)ccc1C[C@@]21CC[C@H](OC)[C@@H](C)C1 [Compound 3, (1S,1′R,3S,4S)-4-methoxy-3-methyl-6′-(5-(prop-1-yn-1-yl)pyridin-3-yl)-3′H,5″H-dispiro[cyclohexane-1,2′-indene-1′,4″-oxazol]-5″,5″-d2-2″-amine] | 1.1 | 16 | 0.2 | – | –
5 | [2H]C1([2H])OC(N)=N[C@]12c1cc(-c3cncc(Cl)c3)ccc1C[C@@]21CC[C@H](OC)[C@@H](C)C1 [Compound 4, (1S,1′R,3S,4S)-6′-(5-chloropyridin-3-yl)-4-methoxy-3-methyl-3′H,5″H-dispiro[cyclohexane-1,2′-indene-1′,4″-oxazol]-5″,5″-d2-2″-amine] | 6.8 | 37.8 | 0.39 | – | –
6 | [2H]C1([2H])OC(N)=N[C@]12c1cc(-c3cncc(C4CC4)c3)ccc1C[C@@]21CC[C@H](OC)[C@@H](C)C1 [Compound 6, (1S,1′R,3S,4S)-6′-(5-cyclopropylpyridin-3-yl)-4-methoxy-3-methyl-3′H,5″H-dispiro[cyclohexane-1,2′-indene-1′,4″-oxazol]-5″,5″-d2-2″-amine] | 54 | 99 | 2.2 | – | –
7 | [2H]C1([2H])OC(N)=NC12c1cc(-c3cc(Cl)cc(C#N)c3)ccc1C[C@@]21C[C@@H](C)[C@H](OC)[C@@H](C)C1 (stereo partly drawn) [Compound 52, 3-((1r,3R,4r,5S)-2″-amino-4-methoxy-3,5-dimethyl-3′H,5″H-dispiro[cyclohexane-1,2′-indene-1′,4″-oxazol]-6′-yl-5″,5″-d2)-5-chlorobenzonitrile] | 4.7 | – | – | 4.3 | –
8 | [2H]C1([2H])OC(N)=N[C@]12c1cc(-c3cccnc3)ccc1C[C@]21CC[C@@H](OC)CC1 [Compound 117, {(1r,1′R,4R)-4-methoxy-6′-(pyrimidin-3-yl)-3′H,5″H-dispiro[cyclohexane-1,2′-indene-1′,4″-oxazol]-5″,5″-d2-2″-amine}] | 341 | – | – | – | 7
9 | [2H]C1([2H])OC(N)=N[C@]12c1cc(-c3cncnc3)ccc1C[C@]21CC[C@@H](OC)CC1 [Compound 118, {(1r,1′R,4R)-4-methoxy-6′-(pyrimidin-5-yl)-3′H,5″H-dispiro[cyclohexane-1,2′-indene-1′,4″-oxazol]-5″,5″-d2-2″-amine}] | 287 | – | – | – | 6
